Measurements from US8809341B2, “2,4-pyrimidinediamine compounds and uses as anti-proliferative agents” (Rigel Pharmaceuticals, Inc., priority 2003, dated 2014).

Legend:
[1] = tested on: A549 cells; assay: in vitro antiproliferation assay, A549 (lung); format: cell-based
In short: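 Standard in vitro antiproliferation assays on tumour cell lines, including A549 and H1299 (both lung); IC50 values determined.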

[2] = tested on: H1299 cells; assay: in vitro antiproliferation assay, H1299 (lung); format: cell-based
Method: The IC50 values of various compounds against a various different tumor cell lines were determined using standard in vitro antiproliferation assays. The tumor cell lines tested were as follows: A549 (lung); H1299 (lung), ACHN (kidney/p53 wt), CAKI (renal cell carcinoma), NCI-H460 (lung); HCT116 (colon/p53w0; HELA (cervix/p53 wt), HUH7 (liver/p53 wt), HUVEC (primary endothelial), LNCAP (prostate), HT-29 (colon); MCF-7 (breast); MCF-7 (breast/ER positive), MDA MB435S (breast); MDA MB231 (breast/ER negative), DU145 (prostate); BxPC-3 (pancreatic); SKOV-3 (ovarian); HepG2 (hepatic), NDHF primary normal human dermal fibroblast), SKMEL28 (breast/p53mut), SKMEL5 (breast/p53 wt), U20S (bone) and PC3 (prostate). […] A blank indicates the specified compound was not tested against the specified cell line.

[3] = Table 5, in vitro antiproliferation, A549 (lung) cells
[4] = Table 5, in vitro antiproliferation, H1299 (lung) cells
[5] = IC50 class against A549 (lung) tumor cells
[6] = IC50 class against H1299 (lung) tumor cells
[7] = Table 7, in vitro antiproliferation, A549 (lung) cells
[8] = Table 7, in vitro antiproliferation, H1299 (lung) cells

Row | SMILES | IC50 [1, 3] [µM] | IC50 [2, 4] [µM] | IC50 [1, 5] [µM] | IC50 [2, 6] [µM] | also measured
1 | Cc1cc(C)cc(Nc2ncc(F)c(Nc3ccc4c(c3)OCO4)n2)c1 [compound 544] | > 20 | > 20 | – | – | –
2 | COc1cc(Nc2ncc(F)c(N(C)c3ccc4c(c3)OCCO4)n2)cc(OC)c1 [compound 546] | ≤ 20 | > 20 | – | – | –
3 | Cc1cc(C)cc(Nc2ncc(F)c(N(C)c3ccc4c(c3)OCCO4)n2)c1 [compound 547] | ≤ 20 | ≤ 20 | – | – | –
4 | CN(c1ccc2c(c1)OCCO2)c1nc(Nc2cccc(-c3ncco3)c2)ncc1F [compound 549] | ≤ 20 | ≤ 20 | – | – | –
5 | CC(=O)N1CCN(c2cccc(Nc3ncc(F)c(Nc4ccc5c(c4)OCCO5)n3)c2)CC1 [compound 550] | ≤ 20 | ≤ 20 | – | – | –
6 | CC(=O)N1CCN(c2cccc(Nc3ncc(F)c(Nc4ccc5c(c4)OC(F)(F)C(F)(F)O5)n3)c2)CC1 [compound 552] | ≤ 20 | ≤ 20 | – | – | –
7 | CC(=O)N1CCN(c2ccc(Nc3ncc(F)c(Nc4ccc5c(c4)OC(F)(F)C(F)(F)O5)n3)cc2)CC1 [compound 553] | ≤ 20 | ≤ 20 | – | – | –
8 | CNC(=O)c1ccc(Nc2ncc(F)c(Nc3ccc4c(c3)OCCO4)n2)cc1Cl [compound 554] | ≤ 20 | ≤ 20 | – | – | –
9 | COC(=O)c1cc(Nc2ncc(F)c(Nc3ccc4c(c3)OCCO4)n2)cc(-c2ncco2)c1 [compound 558] | ≤ 20 | ≤ 20 | – | – | –
10 | Fc1cnc(Nc2cc(-c3ncco3)cc(C(F)(F)F)c2)nc1Nc1ccc2c(c1)OCCO2 [compound 559] | ≤ 20 | ≤ 20 | – | – | –
11 | COc1cc(Nc2ncc(F)c(Nc3ccc4c(c3)OC(F)(F)O4)n2)cc(OC)c1OC [compound 560] | ≤ 20 | ≤ 20 | – | – | –
12 | COc1cc(Nc2ncc(F)c(Nc3ccc4c(c3)OC(F)(F)O4)n2)cc(OC)c1 [compound 561] | ≤ 20 | ≤ 20 | – | – | –
13 | Cc1cc(C)cc(Nc2ncc(F)c(Nc3ccc4c(c3)OC(F)(F)O4)n2)c1 [compound 562] | ≤ 20 | ≤ 20 | – | – | –
14 | Oc1c(Cl)cc(Nc2ncc(F)c(Nc3ccc4c(c3)OC(F)(F)O4)n2)cc1Cl [compound 563] | ≤ 20 | ≤ 20 | – | – | –
15 | Fc1cnc(Nc2cc(Cl)cc(Cl)c2)nc1Nc1ccc2c(c1)OC(F)(F)O2 [compound 564] | ≤ 20 | ≤ 20 | – | – | –
16 | Cc1cc(Nc2ncc(F)c(Nc3ccc4c(c3)OC(F)(F)O4)n2)cc(C)c1Cl [compound 565] | > 20 | > 20 | – | – | –
17 | Cc1cc(Nc2ncc(F)c(Nc3ccc4c(c3)OC(F)(F)O4)n2)cc(Cl)c1O [compound 566] | ≤ 20 | ≤ 20 | – | – | –
18 | COc1cc(Nc2ncc(F)c(Nc3ccc4c(c3)OC(F)(F)O4)n2)cc(C(F)(F)F)c1 [compound 567] | ≤ 20 | ≤ 20 | – | – | –
19 | Cc1cc(Nc2ncc(F)c(Nc3ccc4c(c3)OC(F)(F)O4)n2)cc(C(F)(F)F)c1 [compound 568] | > 20 | ≤ 20 | – | – | –
20 | CNC(=O)COc1c(C)cc(Nc2ncc(F)c(Nc3ccc4c(c3)OCCO4)n2)cc1C [compound 569] | ≤ 20 | ≤ 20 | – | – | –

Row | SMILES | IC50 [1, 3] [µM] | IC50 [2, 4] [µM] | IC50 [1, 5] [µM] | IC50 [2, 6] [µM] | also measured
21 | CNC(=O)COc1c(C)cc(Nc2ncc(F)c(Nc3ccc4c(c3)OCO4)n2)cc1C [compound 570] | ≤ 20 | ≤ 20 | – | – | –
22 | Fc1cnc(Nc2cccc(-c3ncco3)c2)nc1Nc1ccc2c(c1)OC(F)(F)C(F)(F)O2 [compound 571] | ≤ 20 | ≤ 20 | – | – | –
23 | CN(c1ccc2c(c1)OC(F)(F)C(F)(F)O2)c1nc(Nc2cccc(-c3ncco3)c2)ncc1F [compound 572] | ≤ 20 | ≤ 20 | – | – | –
24 | CNC(=O)COc1c(C)cc(Nc2ncc(F)c(N(C)c3ccc4c(c3)OCCO4)n2)cc1C [compound 573] | ≤ 20 | ≤ 20 | – | – | –
25 | CNC(=O)COc1c(C)cc(Nc2ncc(F)c(N(C)c3ccc4c(c3)OC(F)(F)C(F)(F)O4)n2)cc1C [compound 574] | ≤ 20 | ≤ 20 | – | – | –
26 | CNC(=O)COc1c(C)cc(Nc2ncc(F)c(Nc3ccc4c(c3)OC(F)(F)C(F)(F)O4)n2)cc1C [compound 575] | ≤ 20 | ≤ 20 | – | – | –
27 | COc1cc(Nc2ncc(F)c(Nc3ccc4c(c3)NC(C)(C)CO4)n2)cc(OC)c1 [compound 588] | – | – | ≤ 20 | ≤ 20 | –
28 | Fc1cnc(Nc2cccc(-c3ncco3)c2)nc1Nc1ccc2c(c1)NCCO2 [compound 589] | – | – | ≤ 20 | ≤ 20 | –
29 | CC1(C)COc2ccc(Nc3nc(Nc4cccc(-c5ncco5)c4)ncc3F)cc2N1 [compound 590] | – | – | ≤ 20 | ≤ 20 | –
30 | Fc1cnc(Nc2cccc(-c3cnco3)c2)nc1Nc1ccc2c(c1)NCCO2 [compound 591] | – | – | ≤ 20 | ≤ 20 | –
31 | CC1(C)COc2ccc(Nc3nc(Nc4cccc(-c5cnco5)c4)ncc3F)cc2N1 [compound 592] | – | – | > 20 | > 20 | –
32 | COc1c(C)cc(Nc2ncc(F)c(Nc3ccc4c(c3)NCC(C)(C)O4)n2)cc1Cl [compound 597] | – | – | ≤ 20 | ≤ 20 | –
33 | CC(=O)N1CCN(c2ccc(Nc3ncc(F)c(Nc4ccc5c(n4)NCCO5)n3)cc2)CC1 [compound 603] | – | – | ≤ 20 | ≤ 20 | –
34 | CCOC(=O)N1CCN(c2ccc(Nc3ncc(F)c(Nc4ccc5c(n4)NCCO5)n3)cc2)CC1 [compound 604] | – | – | > 20 | ≤ 20 | –
35 | Fc1cnc(Nc2cccc(N3CCOCC3)c2)nc1Nc1ccc2c(n1)NCCO2 [compound 605] | – | – | ≤ 20 | ≤ 20 | –
36 | CC(=O)N1CCN(c2cccc(Nc3ncc(F)c(Nc4ccc5c(n4)NCCO5)n3)c2)CC1 [compound 606] | – | – | ≤ 20 | ≤ 20 | –
37 | CCOC(=O)N1CCN(c2cccc(Nc3ncc(F)c(Nc4ccc5c(n4)NCCO5)n3)c2)CC1 [compound 607] | – | – | ≤ 20 | ≤ 20 | –
38 | CN1CCN(c2ccc(Nc3ncc(F)c(Nc4ccc5c(n4)NCCO5)n3)cc2)CC1 [compound 608] | – | – | ≤ 20 | ≤ 20 | –
39 | CN1CCN(c2cccc(Nc3ncc(F)c(Nc4ccc5c(n4)NCCO5)n3)c2)CC1 [compound 609] | – | – | ≤ 20 | ≤ 20 | –
40 | Fc1cnc(Nc2cccc(-c3ncco3)c2)nc1Nc1ccc2c(n1)NCCO2 [compound 610] | – | – | ≤ 20 | ≤ 20 | –

Row | SMILES | IC50 [1, 3] [µM] | IC50 [2, 4] [µM] | IC50 [1, 5] [µM] | IC50 [2, 6] [µM] | also measured
41 | COc1cc(Nc2ncc(F)c(Nc3ccc4c(n3)NCCO4)n2)cc(OC)c1OC [compound 611] | – | – | ≤ 20 | ≤ 20 | –
42 | COc1ccc(Nc2ncc(F)c(Nc3ccc4c(n3)NCCO4)n2)cc1Cl [compound 612] | – | – | > 20 | > 20 | –
43 | CN1CCN(c2ccc(Nc3ncc(F)c(Nc4ccc5c(n4)NCCO5)n3)cc2Cl)CC1 [compound 615] | – | – | ≤ 20 | ≤ 20 | –
44 | Cc1cc(Nc2ncc(F)c(Nc3ccc4c(n3)NCCO4)n2)ccc1N1CCN(C)CC1 [compound 616] | – | – | ≤ 20 | ≤ 20 | –
45 | CNC(=O)c1cc2cccc(Nc3ncc(F)c(Nc4ccc5c(c4)OC(F)(F)C(F)(F)O5)n3)c2[nH]1 [compound 653] | – | – | – | – | IC50 [1, 7]: ≤ 20 µM; IC50 [2, 8]: ≤ 20 µM
46 | CNC(=O)c1cc2cccc(Nc3ncc(F)c(Nc4ccc5c(c4)OCO5)n3)c2[nH]1 [compound 655] | – | – | – | – | IC50 [1, 7]: ≤ 20 µM; IC50 [2, 8]: ≤ 20 µM
47 | COC(=O)c1cc2cc(Nc3ncc(F)c(Nc4cc(OC)cc(OC)c4)n3)ccc2o1 [compound 656] | – | – | – | – | IC50 [1, 7]: > 20 µM; IC50 [2, 8]: > 20 µM
48 | COc1cc(Nc2nc(Nc3ccc4oc(C(=O)O)cc4c3)ncc2F)cc(OC)c1 [compound 657] | – | – | – | – | IC50 [1, 7]: > 20 µM; IC50 [2, 8]: > 20 µM
49 | COc1cc(Nc2nc(Nc3ccc4[nH]c(C(C)=O)cc4c3)ncc2F)cc(OC)c1 [compound 658] | – | – | – | – | IC50 [1, 7]: > 20 µM; IC50 [2, 8]: ≤ 20 µM
50 | COC(=O)c1cc2cccc(Nc3ncc(F)c(N(C)c4ccc5c(c4)OCCO5)n3)c2o1 [compound 661] | – | – | – | – | IC50 [1, 7]: > 20 µM; IC50 [2, 8]: > 20 µM
51 | COC(=O)c1cc2cc(Nc3ncc(F)c(N(C)c4cc(OC)cc(OC)c4)n3)ccc2o1 [compound 662] | – | – | – | – | IC50 [1, 7]: > 20 µM; IC50 [2, 8]: ≤ 20 µM
52 | CNC(=O)c1cc2cccc(Nc3ncc(F)c(N(C)c4cc(OC)cc(OC)c4)n3)c2[nH]1 [compound 663] | – | – | – | – | IC50 [1, 7]: ≤ 20 µM; IC50 [2, 8]: ≤ 20 µM
53 | CCOC(=O)c1cc2cccc(Nc3ncc(F)c(Nc4ccc(OC)c(OC)c4)n3)c2[nH]1 [compound 664] | – | – | – | – | IC50 [1, 7]: ≤ 20 µM; IC50 [2, 8]: ≤ 20 µM
54 | CNC(=O)c1cc2cccc(Nc3ncc(F)c(Nc4ccc(OC)c(OC)c4)n3)c2[nH]1 [compound 665] | – | – | – | – | IC50 [1, 7]: ≤ 20 µM; IC50 [2, 8]: ≤ 20 µM
55 | CCOC(=O)c1cc2cccc(Nc3ncc(F)c(N(C)c4ccc(OC)c(OC)c4)n3)c2[nH]1 [compound 666] | – | – | – | – | IC50 [1, 7]: ≤ 20 µM; IC50 [2, 8]: ≤ 20 µM
56 | CNC(=O)c1cc2cccc(Nc3ncc(F)c(Nc4cc(C)cc(C)c4)n3)c2[nH]1 [compound 668] | – | – | – | – | IC50 [1, 7]: > 20 µM; IC50 [2, 8]: ≤ 20 µM
57 | CNC(=O)c1cc2cccc(Nc3ncc(F)c(Nc4cc(OC)cc(C(F)(F)F)c4)n3)c2[nH]1 [compound 669] | – | – | – | – | IC50 [1, 7]: ≤ 20 µM; IC50 [2, 8]: ≤ 20 µM
58 | CNC(=O)c1cc2cccc(Nc3ncc(F)c(Nc4ccc5c(c4)OC(F)(F)O5)n3)c2[nH]1 [compound 670] | – | – | – | – | IC50 [1, 7]: > 20 µM; IC50 [2, 8]: > 20 µM
59 | COC(=O)c1cc2cc(Nc3ncc(F)c(N(C)c4ccc(OC)c(Cl)c4)n3)ccc2o1 [compound 671] | – | – | – | – | IC50 [1, 7]: > 20 µM; IC50 [2, 8]: > 20 µM
60 | COC(=O)c1cc2cc(Nc3ncc(F)c(N(C)c4cc(C)c(Cl)c(C)c4)n3)ccc2o1 [compound 672] | – | – | – | – | IC50 [1, 7]: > 20 µM; IC50 [2, 8]: > 20 µM
